# Like-named read-outs stand apart in the source and are kept apart here.
# Columns and labels:
# HT29 cell line (colon) = test: MTT assay, antitumor activity; format: cell-based
# A. fumigatus = test: Antifungal disk diffusion susceptibility test (CLSI M44); format: cell-based
# Description: (§1) Filamentous fungi and yeasts strains, from clinical origin, were supplied by Microbiology Service from The Princess Hospital, Madrid. They are detailed in Table III.
# (§2) Filamentous fungi and yeast cells suspensions in distilled water was prepared from a culture of 24-48 h, depending on species, in Sabouraud agar. Each suspension was adjusted to a fixed size inoculum of 1-5×10^8 CFU/ml with a spectrophotometer (Ferraro, M J National Committee for Clinical Laboratory Standards. 2000).
# (§3) Antifungal susceptibility tests were developed following the standardized methodology detailed in document CLSI: M44-4: Method for Antifungal Disk diffusion susceptibility testing of yeasts consisting of disk diffusion on agar Muller-Hinton (supplemented with 2% glucose).
# A. niger = test: as above; format: cell-based
# Description: as §1, §2, §3
# C. lusitaniae = test: as above; format: cell-based
# Description: as §1, §2, §3
# A. flavus = test: as above; format: cell-based
# Description: as §1, §2, §3
# C. tropicalis = test: as above; format: cell-based
# Description: as §1, §2, §3
# A. terreus = test: as above; format: cell-based
# Description: as §1, §2, §3
# C. glabrata = test: as above; format: cell-based
# Description: as §1, §2, §3
# C. guilliermondii = test: as above; format: cell-based
# Description: as §1, §2, §3
# C. albicans = test: as above; format: cell-based
# Description: as §1, §2, §3
# T. pulmonis = test: Kirby-Bauer disk diffusion susceptibility test; format: cell-based, Tsukamurella pulmonis; conditions: T. pulmonis; zone of inhibition; 200 μg/disc
# Description: (§4) Bacterial strains, from clinical origin, were supplied by the National Center for Microbiology, Institute of Health Carlos III (Majadahonda, Madrid). They are detailed in Table I.
# (§5) Bacterial cells suspension in sterile saline was prepared from a culture of 24-72 h, depending on bacterial species, in Mueller-Hinton Agar with 5% sheep blood. Each suspension was adjusted to a fixed size inoculum of 1-5×10^8 CFU/ml with a spectrophotometer (Ferraro, M J National Committee for Clinical Laboratory Standards. 2000).
# (§6) Kirby-Bauer disk diffusion susceptibility test protocol was utilized to determine the sensitivity or resistance of pathogenic bacteria against the compounds and others antibiotics. The absence of growth around the disks is an indirect measure of the ability of this compound to inhibit an organism (Kirby, W. et al., Antibiotics Annu. 1956-1957:892). After 18 to 72 hours of incubation at […], with or without CO2, under aerobic or anaerobic conditions, depending on the bacterial species, halo of growth inhibition were obtained and evaluated.
# (§7) Interpretation of susceptibility and resistance was based on the presence or absence of a zone of inhibition surrounding the disk. Kirby-Bauer disk diffusion susceptibility test is a common method which uses antibiotic-impregnated wafers to test whether bacteria are affected by antibiotics. The size of the zone of inhibition depends on how effective the antibiotic is at stopping the growth of the bacterium. A stronger antibiotic will create a larger zone, because a lower concentration of the antibiotic is enough to stop growth.
# [1] = tested on: CAL33 cell line (head and neck); test: MTT assay, antitumor activity; format: cell-based
# N. carnea = test: Kirby-Bauer disk diffusion susceptibility test; format: cell-based, Nocardia carnea; conditions: N. carnea; zone of inhibition; 200 μg/disc
# Description: as §4, §5, §6, §7
# M. abscessus = test: Kirby-Bauer disk diffusion susceptibility test; format: cell-based, Mycobacterium abscessus; conditions: M. abscessus; zone of inhibition; 200 μg/disc
# Description: as §4, §5, §6, §7
# C. parapsilopsis = test: Antifungal disk diffusion susceptibility test (CLSI M44); format: cell-based, C. parapsilosis
# Description: as §1, §2, §3
# [2] = Cellular viability (CellTiter Glo) in parallel to the anti-HIV assay; format: cell-based; conditions: human; concentration required to kill 50% of cells; MT-2 cells; read-out: CC50 VIH MT-2
# Description: All assays for assessing anti-HIV activity were taken in parallel to determine cellular viability of the culture in the presence or absence of different concentrations of the isolated molecule. It was followed exactly the same methodology as in the anti-HIV assay except with the addition of complete DMEM medium instead of supernatant viral, in the same proportion, and the detection of the viability was performed with the viability detection kit CellTiter Glo (Promega), following manufacturer instructions. Viability is directly proportional to the luciferase activity obtained. All data are expressed as percentage relative to a control with DMSO at the same concentration. Antiviral activity and toxicity curves were performed to the compound at different concentrations.
# S. epidermidis = test: Kirby-Bauer disk diffusion susceptibility test; format: cell-based; conditions: S. epidermidis; zone of inhibition; 200 μg/disc
# Description: as §4, §5, §6, §7
# M. fortuitum = test: Kirby-Bauer disk diffusion susceptibility test; format: cell-based; conditions: M. fortuitum; zone of inhibition; 200 μg/disc
# Description: as §4, §5, §6, §7
# E. faecalis = test: Kirby-Bauer disk diffusion susceptibility test; format: cell-based; conditions: E. faecalis; zone of inhibition; 200 μg/disc
# Description: as §4, §5, §6, §7
# N. cyriacigeorgica = test: Kirby-Bauer disk diffusion susceptibility test; format: cell-based; conditions: N. cyriacigeorgica; zone of inhibition; 200 μg/disc
# Description: as §4, §5, §6, §7
# M. chelonae = test: Kirby-Bauer disk diffusion susceptibility test; format: cell-based; conditions: M. chelonae; zone of inhibition; 200 μg/disc
# Description: as §4, §5, §6, §7
# E. faecium = test: Kirby-Bauer disk diffusion susceptibility test; format: cell-based; conditions: E. faecium; zone of inhibition; 200 μg/disc
# Description: as §4, §5, §6, §7
# P. aeruginosa = test: Kirby-Bauer disk diffusion susceptibility test; format: cell-based; conditions: P. aeruginosa; zone of inhibition; 200 μg/disc
# Description: as §4, §5, §6, §7
# S. aureus = test: Kirby-Bauer disk diffusion susceptibility test; format: cell-based; conditions: S. aureus; zone of inhibition; 200 μg/disc
# Description: as §4, §5, §6, §7
# E. coli = test: Kirby-Bauer disk diffusion susceptibility test; format: cell-based; conditions: E. coli; zone of inhibition; 200 μg/disc
# Description: as §4, §5, §6, §7
# B. cereus = test: Kirby-Bauer disk diffusion susceptibility test; format: cell-based, Bacillus cereus; conditions: B. cereus; zone of inhibition; 200 μg/disc
# Description: as §4, §5, §6, §7
# HIV = test: microbe, parasite or virus in culture; format: cell-based; conditions: for safety index: anti-HIV activity/toxicity profile, MT-2 cells
# From the text: Assessment of in vitro antiviral activity is usually performed to estimate parameters of antiviral potency and efficacy represented by the percentage of inhibition of HIV activity or IC50. The assay utilized is based on the use of recombinant viruses in which the nef gene, […] for in vitro HIV replication, has been replaced by a Renilla reporter gene so that viral replication can be quantified directly (Garcia-Perez J et al, J Med Virol. 2007 February; 79(2):127-37). The assay was performed infecting MT-2 cells or PHA-activated PBMCs/IL-2 with viral supernatants obtained previously. The study was development in AIDS Immunopathology Unit, National Center of Microbiology, Institute of Health Carlos III, Majadahonda, Madrid, Spain.
# All data are expressed as percentage relative to a control with DMSO at the same concentration. Antiviral activity and toxicity curves were performed to the compound at different concentrations.
# A. baumannii = test: Kirby-Bauer disk diffusion susceptibility test; format: cell-based; conditions: A. baumannii; zone of inhibition; 200 μg/disc
# Description: as §4, §5, §6, §7
# MCF7 cell line (breast) = test: MTT assay, antitumor activity; format: cell-based
# [3] = Human immunodeficiency virus 1, MT2
# [4] = Human immunodeficiency virus 1, MT2, read-out: IC50 VIH MT-2
Structure (SMILES),"Activity (mm), 200 μg/disc (A. fumigatus) [mm]","Activity (mm), 200 μg/disc (A. niger) [mm]","Activity (mm), 200 μg/disc (C. lusitaniae) [mm]","Activity (mm), 200 μg/disc (A. flavus) [mm]","Activity (mm), 200 μg/disc (C. tropicalis) [mm]","Activity (mm), 200 μg/disc (A. terreus) [mm]","Activity (mm), 200 μg/disc (C. glabrata) [mm]","Activity (mm), 200 μg/disc (C. guilliermondii) [mm]","Activity (mm), 200 μg/disc (C. albicans) [mm]","Activity (mm), 200 μg/disc (T. pulmonis) [mm]","Activity (mm), 200 μg/disc (N. carnea) [mm]","Activity (mm), 200 μg/disc (M. abscessus) [mm]","Activity (mm), 200 μg/disc (C. parapsilopsis) [mm]",CC50 [2] [µM],"Activity (mm), 200 μg/disc (S. epidermidis) [mm]","Activity (mm), 200 μg/disc (M. fortuitum) [mm]","Activity (mm), 200 μg/disc (N. cyriacigeorgica) [mm]","Activity (mm), 200 μg/disc (M. chelonae) [mm]","Activity (mm), 200 μg/disc (P. aeruginosa) [mm]","Activity (mm), 200 μg/disc (S. aureus) [mm]",also measured
CCCCCC1=NN(C(=O)CCOC(=O)CCC(=O)O)OC(CCCCC)C1 (centres unmarked) [DOXA-1],15,18,38,20,30,18,30,38,25,34,40,32,30,8.2,22,30,35,34,9,20,"Inhibition of cell line (HT29 cell line (colon); 750 nM): moderate inhibition; Inhibition of cell line ([1]; 750 nM): moderate inhibition; Activity (mm), 200 μg/disc (E. faecalis): 34 mm; Activity (mm), 200 μg/disc (E. faecium): 34 mm; Activity (mm), 200 μg/disc (E. coli): 9 mm; Activity (mm), 200 μg/disc (B. cereus): 36 mm; IC50 (HIV; [3]): 130 nM; IC50 (HIV; [4]): 130 nM; safety index (HIV): more than 60"
CCCCCC1=NN(C(=O)CCOC(C)=O)OC(CCCCC)C1 (centres unmarked) [DOXA-2],30,40,20,38,20,40,18,28,18,41,25,25,18,7.72,10,25,26,30,9,10,"Concentration of best inhibition (HT29 cell line (colon)): 50 nM; Concentration of optimal inhibition [1]: 100 nM; Concentration at which proliferation was inhibited ([1]; 10-750 nM, 24, 48 and 72 hours): 50 nM; Activity (mm), 200 μg/disc (A. baumannii): 9 mm; Activity (mm), 200 μg/disc (E. coli): 9 mm; Activity (mm), 200 μg/disc (B. cereus): 20 mm; IC50 (HIV; [3]): 84 nM; IC50 (HIV; [4]): 84 nM; safety index (HIV): about 100; Concentration at which proliferation was inhibited (MCF7 cell line (breast)): 250 nM"
